Data from ChEMBL document CHEMBL4138047, “Recent advancements in the discovery of protein-protein interaction inhibitors of replication protein A” (Medchemcomm, 2017).

Key:
[1] = molecular target: T1, Replication protein A 70 kDa DNA-binding subunit (Homo sapiens, UniProt P27694); experiment: Binding affinity to RPA70 (unknown origin) by FITC-labeled probe based fluorescence polarization anisotropy
[2] = molecular target: T1, Replication protein A 70 kDa DNA-binding subunit; experiment: Inhibition of GST-tagged X-rhodamine-labelled p53TAD2 binding to human recombinant RPA70 expressed in Escherichia coli BL21 by fluorescence anisotropy competition assay
[3] = molecular target: T1, Replication protein A 70 kDa DNA-binding subunit; experiment: Binding affinity to human recombinant RPA70 expressed in Escherichia coli BL21 using FPA by tryptophan fluorescence quenching assay
[4] = Binding affinity to human recombinant RPA70 R41E/R43E mutant expressed in Escherichia coli BL21 using FPA by tryptophan fluorescence quenching assay
[5] = Apparent permeability in human Caco2 cells at 5 uM incubated for 120 mins by LC-MS/MS method; format: ADME, cell-based; conditions: Caco-2
[6] = Protein binding in human plasma at 1 ug/ml after 4 hrs by LC-MS/MS method; format: ADME, cell-free; conditions: read-out: PPB (converted)

T1 sequence (P27694 whole entry): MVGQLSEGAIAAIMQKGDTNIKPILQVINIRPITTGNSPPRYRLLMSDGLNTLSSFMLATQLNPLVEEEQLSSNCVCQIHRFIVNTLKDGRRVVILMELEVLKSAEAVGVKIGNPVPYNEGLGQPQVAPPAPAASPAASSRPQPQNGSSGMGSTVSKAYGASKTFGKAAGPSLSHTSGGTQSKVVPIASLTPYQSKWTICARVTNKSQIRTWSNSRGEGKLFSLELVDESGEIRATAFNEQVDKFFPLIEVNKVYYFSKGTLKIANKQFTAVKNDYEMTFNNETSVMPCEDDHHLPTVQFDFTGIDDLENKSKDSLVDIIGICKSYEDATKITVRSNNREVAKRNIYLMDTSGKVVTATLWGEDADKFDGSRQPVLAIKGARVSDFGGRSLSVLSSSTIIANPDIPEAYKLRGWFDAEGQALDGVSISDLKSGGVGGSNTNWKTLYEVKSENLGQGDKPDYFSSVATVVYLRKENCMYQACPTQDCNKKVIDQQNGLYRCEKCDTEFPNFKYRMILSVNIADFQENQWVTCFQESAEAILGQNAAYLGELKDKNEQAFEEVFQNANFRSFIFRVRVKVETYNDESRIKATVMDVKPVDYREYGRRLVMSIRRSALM

Kd [1] [µM] | Kd [2] [µM] | Kd [3] [µM] | Papp at 2 h, 5 µM [5] [nm/s] | fraction unbound at 4 h, 1 ug/ml [6] | SMILES | Kd [4] [µM]
30 |  |  |  |  | Cc1ccc(C(=O)Nc2ccccc2C(=O)O)cc1S(=O)(=O)Nc1ccc(Br)cc1 | 
 | 9 | 29 |  |  | CC(C)C1=C[C@@]23CC[C@@H]4[C@](C)(CCC[C@@]4(C)C(=O)O)[C@H]2C[C@@H]1[C@@H](C(=O)O)[C@@H]3C(=O)O | 230
0.81 |  |  | 292 | 0.002 | Cc1ccc(C(=O)Nc2cc(Br)ccc2C(=O)O)cc1S(=O)(=O)Nc1ccc(Cl)c(Cl)c1 | 
